Test results as given in patent publication US20250089720A1, “FUNGICIDAL MIXTURES COMPRISING COMBINATION CONTAINING PHTHALIMIDE” (Adama Makhteshim Ltd., priority 2022, published 2025).

Key:
[1] = system: Ramularia (Ramularia collo-cygni) in barley; assay: fungicidal activity toward Ramularia in barley, protected conditions; format: in vivo
Description: The following fungicides and combination of fungicides are applied to ramularia in barley. The observation was made 10 days after application. The results are shown below: The following fungicides and combination of fungicides are applied to ramularia in barley. The observation was made 24 days after application.

[2] = system: Septoria Tritici Blotch (STB) (Zymoseptoria tritici); assay: glasshouse fungicidal efficacy against Septoria Tritici Blotch on winter wheat; settings: Abbott's transformation
Description: The study design was a randomized complete block with 4 replicates.
The treatments were applied in accordance with Table 14, and on the day after application, artificial inoculation of the target was performed by spraying the inoculum solution at the concentration of 1×10^6 cfu/ml on the leaves. The compositions were diluted in a water volume equivalent to 400 L/ha.
Analysis of Variance (ANOVA) and a Bartlett test to assume the homogeneity of the treatment variances were performed on each assessment. Data were analyzed using ANOVA.
Evaluations were performed on incidence and severity of Septoria on leaves and transformed into percentage of disease control using the Abbott's transformation.

Cc1ccc(S(=O)(=O)n2cc(F)c(=N)n(C)c2=O)cc1 [ADF-16]
Observed Efficacy ([1]; ADF-16 25 g a.i./ha, 10 days after application): 45.70%
Observed Efficacy ([1]; ADF-16 25 g a.i./ha, 24 days after application): 44.50%
Observed Efficacy ([1]; ADF-16 35 g a.i./ha, 10 days after application): 55.00%
Observed Efficacy ([1]; ADF-16 35 g a.i./ha, 24 days after application): 45.60%

O=C1c2ccccc2C(=O)N1SC(Cl)(Cl)Cl [Folpet, folpet]
Observed Efficacy ([1]; Folpet 175 g a.i./ha, 10 days after application): 25.10%
Observed Efficacy ([1]; Folpet 175 g a.i./ha, 24 days after application): 21.60%
Observed Efficacy ([1]; Folpet 300 g a.i./ha, 10 days after application): 61.10%
Observed Efficacy ([1]; Folpet 300 g a.i./ha, 24 days after application): 31.00%
Observed Efficacy ([1]; Folpet 400 g a.i./ha, 10 days after application): 64.80%
Observed Efficacy ([1]; Folpet 400 g a.i./ha, 24 days after application): 49.80%
Disease control on severity on leaves ([2]; Folpet 500 g AI/ha): 41.6%

CC(O)(Cn1cncn1)c1ccc(Oc2ccc(Cl)cc2)cc1C(F)(F)F (stereo not drawn) [Mefentrifluconazole]
Disease control on severity on leaves ([2]; Mefentrifluconazole 100 g AI/ha): 49.9%
